Patent US20100035755A1, “METHOD OF CONTROLLING WEEDS IN A TURF GRASS BY USING SULFONYLUREA COMPOUNDS” (Moghu Research Center Ltd., priority 2008, published 2010)

Tests used:
Veronica officinalis = assay: Weed spectrum, greenhouse pot test; format: in vivo; settings: two weeks after application
Description: (§1) To a rectangular plastic pot (surface area of 300 cm^2) in which sandy loam and mixed top soil (Boo-Nong Top Soil No. 3, for horticultural use) are filled in 1:1 ratio, eight different kinds of weed seeds including Poa annua and Digitaria sanguinalis as poaceae weed, Cyperus amuricus as cyperaceae weeds and Trifolium repens, Kummerowia striata, fleabane, Veronica officinalis and Portulaca oleracea as broadleaf weeds were sewn (50 to 100 seeds per each weed). These weeds are representative examples of the weeds which typically thrive in a turf grass field.
(§2) The pot was kept in a greenhouse which was maintained at 25˜30° C. for daytime and 15˜25° C. for nighttime, respectively, and irrigation was carried out regularly. Fourteen days after seeding, when the turf grass and the weeds reached approximately at three-leaf stage, the weed seeds were again sewn in separate two pots or “Test chemical” and “Control chemical” were applied in the same manner as the method described above. In this regard, when plants were cultivated for two weeks and then the chemical application was carried out, it is designated as “post-emergence” treatment. On the other than, when the seeding was carried right before the chemical application, it is designated as “pre-emergence” treatment. Preparation of a chemical solution, application method, etc. are the same as above described for evaluation of turf grass selectivity. Two weeks after the chemical application, efficacy of the chemicals for each type of the weeds was evaluated (visual evaluation) based on 0 to 100 scale (i.e., 0 indicates no efficacy and 100 indicates complete weed control).

Trifolium repens = assay: Weed spectrum, greenhouse pot test; format: in vivo; settings: two weeks after application
Description: as §1, §2

Bentgrass = assay: Turf grass selectivity, greenhouse pot test; format: in vivo, Agrostris palustris
Description: (§3) Turf mats of Zoysia grass, bentgrass, Kentucky bluegrass, or perennial rye grass known as cool season turfgrass or western grass were purchased and cut into a piece having 10 cm×20 cm size. Then, each piece was transplanted in a rectangular plastic pot (surface area of 300 cm^2) in which sandy loam and mixed top soil (Boo-Nong Top Soil No. 3, for horticultural use) are filled in 1:1 ratio. After the transplantation, the grasses were cut once a week to maintain the blade height at 0.5-1.0 cm and cultivated for one month in a green house of which temperature was kept at 25˜30° C. for daytime and 15˜25° C. for nighttime, respectively. Then, the ‘test chemical’ of the above Examples 1 and 2 or ‘control chemical’ was applied thereto in an amount of 400, 200, 100, 50, 25, 12, 6, 3 g ai/ha. As a “control chemical”, pyrazolsulfuron ethyl wettable agent (manufactured by Dongbu Fine Chemicals; herein after, referred to as ‘control chemical No. 1’) and flazasulfuron (manufactured by Dongbu HiTek; herein after, referred to as ‘control chemical No. 2’), both sulfonylurea herbicides for a turf grass, were used. Application was carried out by using a track sprayer (R&D Sprayer, USA) equipped with Teejet 8002 nozzle (Spraying Systems Co., USA), and the application amount was adjusted to 2,000 L/ha, which is a typical application amount for a golf course in Korea. Application solution was prepared by diluting the “test chemical” or the “control chemical” with tap water. […] The test was repeated three times in a random arrangement and the results are given in average value of each test (see Table 2 below).

Zoysia japonica = assay: Turf grass selectivity, greenhouse pot test; format: in vivo; settings: for phytotoxicity (visual assessment 0-10): Zoysia japonica
Description: as §3

Perennial rye grass = assay: Turf grass selectivity, greenhouse pot test; format: in vivo
Description: as §3

Kentucky bluegrass = assay: Turf grass selectivity, greenhouse pot test; format: in vivo, Poa pratensis
Description: as §3

Dandelion = assay: Weed spectrum, greenhouse pot test; format: in vivo; settings: two weeks after application

COc1nc(C)nc(NC(=O)NS(=O)(=O)c2cscc2C2(CF)OCCO2)n1 [Example 2, 3-(2-fluoromethyl-1,3-dioxalan-2-yl)-N-[(4-methoxy-6-methyltriazin-2-yl)aminocarbonyl]4-thiophene sulfonamide]
60: efficacy (0-100 scale) (Trifolium repens; Post-emergence, 50 g ai/ha) | efficacy (0-100 scale) (Trifolium repens; Post-emergence, 100 g ai/ha) | efficacy (0-100 scale) (Trifolium repens; Pre-emergence, 25 g ai/ha)
5: phytotoxicity (visual assessment 0-10) (Bentgrass; 6 g ai/ha, 2 weeks) | phytotoxicity (visual assessment 0-10) (Bentgrass; 12 g ai/ha, 4 weeks) | phytotoxicity (visual assessment 0-10) (Perennial rye grass; 6 g ai/ha, 2 weeks) | phytotoxicity (visual assessment 0-10) (Perennial rye grass; 12 g ai/ha, 4 weeks) | phytotoxicity (visual assessment 0-10) (Kentucky bluegrass; 6 g ai/ha, 2 weeks) | phytotoxicity (visual assessment 0-10) (Kentucky bluegrass; 12 g ai/ha, 4 weeks)
4: phytotoxicity (visual assessment 0-10) (Zoysia japonica; 400 g ai/ha, 2 weeks)
90: efficacy (0-100 scale) (Trifolium repens; Pre-emergence, 100 g ai/ha) | efficacy (0-100 scale) (Dandelion; Post-emergence, 12 g ai/ha) | efficacy (0-100 scale) (Dandelion; Post-emergence, 25 g ai/ha) | efficacy (0-100 scale) (Dandelion; Pre-emergence, 12 g ai/ha) | efficacy (0-100 scale) (Dandelion; Pre-emergence, 25 g ai/ha)
2: phytotoxicity (visual assessment 0-10) (Zoysia japonica; 200 g ai/ha, 2 weeks)
30: efficacy (0-100 scale) (Veronica officinalis; Pre-emergence, 12 g ai/ha) | efficacy (0-100 scale) (Veronica officinalis; Pre-emergence, 25 g ai/ha) | efficacy (0-100 scale) (Trifolium repens; Pre-emergence, 12 g ai/ha)
20: efficacy (0-100 scale) (Veronica officinalis; Post-emergence, 12 g ai/ha) | efficacy (0-100 scale) (Veronica officinalis; Post-emergence, 25 g ai/ha) | efficacy (0-100 scale) (Veronica officinalis; Post-emergence, 50 g ai/ha) | efficacy (0-100 scale) (Veronica officinalis; Post-emergence, 100 g ai/ha)
70: efficacy (0-100 scale) (Trifolium repens; Pre-emergence, 50 g ai/ha)
100: efficacy (0-100 scale) (Dandelion; Post-emergence, 50 g ai/ha) | efficacy (0-100 scale) (Dandelion; Post-emergence, 100 g ai/ha) | efficacy (0-100 scale) (Dandelion; Pre-emergence, 50 g ai/ha) | efficacy (0-100 scale) (Dandelion; Pre-emergence, 100 g ai/ha)
high safety: safety to Zoysia japonica (Zoysia japonica; 100 g ai/ha or less)
10: phytotoxicity (visual assessment 0-10) (Bentgrass; 25 g ai/ha, 2 weeks) | phytotoxicity (visual assessment 0-10) (Bentgrass; 25 g ai/ha, 4 weeks) | phytotoxicity (visual assessment 0-10) (Bentgrass; 50 g ai/ha, 2 weeks) | phytotoxicity (visual assessment 0-10) (Bentgrass; 50 g ai/ha, 4 weeks) | phytotoxicity (visual assessment 0-10) (Bentgrass; 100 g ai/ha, 2 weeks) | phytotoxicity (visual assessment 0-10) (Bentgrass; 100 g ai/ha, 4 weeks) | phytotoxicity (visual assessment 0-10) (Bentgrass; 200 g ai/ha, 2 weeks) | phytotoxicity (visual assessment 0-10) (Bentgrass; 200 g ai/ha, 4 weeks) | phytotoxicity (visual assessment 0-10) (Bentgrass; 400 g ai/ha, 2 weeks) | phytotoxicity (visual assessment 0-10) (Bentgrass; 400 g ai/ha, 4 weeks) | phytotoxicity (visual assessment 0-10) (Perennial rye grass; 25 g ai/ha, 2 weeks) | phytotoxicity (visual assessment 0-10) (Perennial rye grass; 25 g ai/ha, 4 weeks) | phytotoxicity (visual assessment 0-10) (Perennial rye grass; 50 g ai/ha, 2 weeks) | phytotoxicity (visual assessment 0-10) (Perennial rye grass; 50 g ai/ha, 4 weeks) | phytotoxicity (visual assessment 0-10) (Perennial rye grass; 100 g ai/ha, 2 weeks) | phytotoxicity (visual assessment 0-10) (Perennial rye grass; 100 g ai/ha, 4 weeks) | phytotoxicity (visual assessment 0-10) (Perennial rye grass; 200 g ai/ha, 2 weeks) | phytotoxicity (visual assessment 0-10) (Perennial rye grass; 200 g ai/ha, 4 weeks) | phytotoxicity (visual assessment 0-10) (Perennial rye grass; 400 g ai/ha, 2 weeks) | phytotoxicity (visual assessment 0-10) (Perennial rye grass; 400 g ai/ha, 4 weeks) | phytotoxicity (visual assessment 0-10) (Kentucky bluegrass; 25 g ai/ha, 2 weeks) | phytotoxicity (visual assessment 0-10) (Kentucky bluegrass; 25 g ai/ha, 4 weeks) | phytotoxicity (visual assessment 0-10) (Kentucky bluegrass; 50 g ai/ha, 2 weeks) | phytotoxicity (visual assessment 0-10) (Kentucky bluegrass; 50 g ai/ha, 4 weeks) | phytotoxicity (visual assessment 0-10) (Kentucky bluegrass; 100 g ai/ha, 2 weeks) | phytotoxicity (visual assessment 0-10) (Kentucky bluegrass; 100 g ai/ha, 4 weeks) | phytotoxicity (visual assessment 0-10) (Kentucky bluegrass; 200 g ai/ha, 2 weeks) | phytotoxicity (visual assessment 0-10) (Kentucky bluegrass; 200 g ai/ha, 4 weeks) | phytotoxicity (visual assessment 0-10) (Kentucky bluegrass; 400 g ai/ha, 2 weeks) | phytotoxicity (visual assessment 0-10) (Kentucky bluegrass; 400 g ai/ha, 4 weeks)
1: phytotoxicity (visual assessment 0-10) (Bentgrass; 3 g ai/ha, 4 weeks) | phytotoxicity (visual assessment 0-10) (Zoysia japonica; 100 g ai/ha, 2 weeks) | phytotoxicity (visual assessment 0-10) (Zoysia japonica; 200 g ai/ha, 4 weeks) | phytotoxicity (visual assessment 0-10) (Perennial rye grass; 3 g ai/ha, 4 weeks) | phytotoxicity (visual assessment 0-10) (Kentucky bluegrass; 3 g ai/ha, 4 weeks)
0: phytotoxicity (visual assessment 0-10) (Zoysia japonica; 3 g ai/ha, 2 weeks) | phytotoxicity (visual assessment 0-10) (Zoysia japonica; 3 g ai/ha, 4 weeks) | phytotoxicity (visual assessment 0-10) (Zoysia japonica; 6 g ai/ha, 2 weeks) | phytotoxicity (visual assessment 0-10) (Zoysia japonica; 6 g ai/ha, 4 weeks) | phytotoxicity (visual assessment 0-10) (Zoysia japonica; 12 g ai/ha, 2 weeks) | phytotoxicity (visual assessment 0-10) (Zoysia japonica; 12 g ai/ha, 4 weeks) | phytotoxicity (visual assessment 0-10) (Zoysia japonica; 25 g ai/ha, 2 weeks) | phytotoxicity (visual assessment 0-10) (Zoysia japonica; 25 g ai/ha, 4 weeks) | phytotoxicity (visual assessment 0-10) (Zoysia japonica; 50 g ai/ha, 2 weeks) | phytotoxicity (visual assessment 0-10) (Zoysia japonica; 50 g ai/ha, 4 weeks) | phytotoxicity (visual assessment 0-10) (Zoysia japonica; 100 g ai/ha, 4 weeks)
7: phytotoxicity (visual assessment 0-10) (Bentgrass; 12 g ai/ha, 2 weeks) | phytotoxicity (visual assessment 0-10) (Perennial rye grass; 12 g ai/ha, 2 weeks) | phytotoxicity (visual assessment 0-10) (Kentucky bluegrass; 12 g ai/ha, 2 weeks)
40: efficacy (0-100 scale) (Veronica officinalis; Pre-emergence, 50 g ai/ha) | efficacy (0-100 scale) (Trifolium repens; Post-emergence, 12 g ai/ha)
50: efficacy (0-100 scale) (Veronica officinalis; Pre-emergence, 100 g ai/ha) | efficacy (0-100 scale) (Trifolium repens; Post-emergence, 25 g ai/ha)
3: phytotoxicity (visual assessment 0-10) (Bentgrass; 3 g ai/ha, 2 weeks) | phytotoxicity (visual assessment 0-10) (Bentgrass; 6 g ai/ha, 4 weeks) | phytotoxicity (visual assessment 0-10) (Zoysia japonica; 400 g ai/ha, 4 weeks) | phytotoxicity (visual assessment 0-10) (Perennial rye grass; 3 g ai/ha, 2 weeks) | phytotoxicity (visual assessment 0-10) (Perennial rye grass; 6 g ai/ha, 4 weeks) | phytotoxicity (visual assessment 0-10) (Kentucky bluegrass; 3 g ai/ha, 2 weeks) | phytotoxicity (visual assessment 0-10) (Kentucky bluegrass; 6 g ai/ha, 4 weeks)
